Laboratory results from patent US20250230138A1, “COMPOUNDS HAVING A T-STRUCTURE FORMED BY AT LEAST FOUR CYCLES FOR USE IN THE TREATMENT OF CANCER AND OTHER INDICATIONS” (TheRas, Inc., priority 2022, published 2025).
pIC50: −log10 of the molar value. Read-outs that look alike come from different tables or passages of the source.

Experiments:
[1] = target: Cys242 in human PIK3CA (157-299) (Homo sapiens (Human), UniProt P42336); assay: Covalent modification assay using MALDI-TOF MS; assay type: biochemical; conditions: 4 h reaction time point
Chain of Cys242 in human PIK3CA (157-299) (P42336 157-299): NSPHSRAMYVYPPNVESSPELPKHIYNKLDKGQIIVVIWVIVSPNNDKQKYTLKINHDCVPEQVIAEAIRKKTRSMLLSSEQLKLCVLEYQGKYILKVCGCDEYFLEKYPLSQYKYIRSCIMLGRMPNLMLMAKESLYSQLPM
Outline: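 Covalent adduct formation was read by linear-mode MALDI-TOF with sinapinic acid matrix, reported as modified-protein peak height divided by total protein peak heights. Reactions held PIK3CA (157-299) at 1 or 3.33 μM in HEPES/NaCl/MgCl2 buffer, pH 7.3, sampled after 15 min to 4 h at room temperature.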

pAKT in BT474 cells = assay: Cell-based pAKT HTRF assay in BT474 cells; conditions: BT474 cells, 4 hr incubation, read-out: pAKT inhibition IC50 in BT474 cells
Outline: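 BT474 cells in DMEM/10% FBS were treated the day after seeding with a 9-point, 3-fold compound series from 3 μM (0.25% DMSO) for 4 hr. Lysates were mixed with d2 and Eu cryptate anti-pAKT antibodies and incubated 4-24 h at room temperature. HTRF was read with excitation at 320 nm and emission at 615 nm.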

[2] = 1 μM protein target, 1:5 protein to compound ratio (compounds 853-1279)
[3] = 3.33 μM protein target, 1:7.5 protein to compound ratio (compounds 1-852)

Structure (SMILES)	% of modification [1, 2]	pIC50 (pAKT in BT474 cells; Compounds 1000-1279)	% of modification [1, 3]	pIC50 (pAKT in BT474 cells; Compounds 10-999)
C=CC(=O)N1CCn2nc(-c3nc(-c4ccc5c(cnn5C)c4F)c4ccsc4c3-c3c(F)cc(F)cc3OCCO)cc2[C@H]1C (single isomer, unassigned) [Compound 1145]	A (percent of modification of PIK3CA protein ≥75%)	> 7.00	–	–
C=CC(=O)N1CCn2nc(-c3nc(-c4ccc5c(c4)C(=O)N(C)C5)c4ccsc4c3-c3c(F)cc(F)cc3OCCOC)cc2[C@H]1C [Compound 846]	–	–	A (percent of modification of PIK3CA protein ≥75%)	> 7.00
C=CC(=O)N1CCn2nc(-c3nc(-c4cnn(C)c4)c4ccsc4c3-c3ccc(F)cc3OC(F)F)cc2C1 [Compound 224]	–	–	A (percent of modification of PIK3CA protein ≥75%)	> 7.00
C=CC(=O)N1C[C@H](C)n2nc(-c3nc(-c4ccc5ncn(C)c5c4)c4ccsc4c3-c3c(F)cc(F)cc3OCCOC)cc2[C@H]1C [Compound 604]	–	–	A (percent of modification of PIK3CA protein ≥75%)	> 7.00
C=CC(=O)N1Cc2cc(-c3nc(-c4ccc5c(cnn5C)c4)c4ccsc4c3-c3c(F)cc(F)cc3OC[C@@H](C)O)nn2C[C@H]1C [Compound 725]	–	–	A (percent of modification of PIK3CA protein ≥75%)	> 7.00
C=CC(=O)N1CCc2nc(-c3nc(-c4cnc(N)nc4)c4ccsc4c3-c3ccc(F)cc3OCCOC)sc2C1 [Compound 133]	–	–	A (percent of modification of PIK3CA protein ≥75%)	> 7.00
C=CC(=O)N1CC(n2cc(-c3nc(-c4ccn(C)c(=O)c4)c4ccsc4c3-c3ccc(F)cc3OC)cn2)C1 [Compound 179]	–	–	A (percent of modification of PIK3CA protein ≥75%)	> 7.00
C=CC(=O)N1CCc2nc(-c3nc(N4CCN(S(C)(=O)=O)CC4)c4ccsc4c3-c3ccc(F)cc3OCCOC)sc2C1 [Compound 167]	–	–	B (50%<percent of modification <75%)	6.00 to 7.00
C=CC(=O)N1Cc2cc(-c3nc(-c4ccc5nn(C)cc5c4)c4ccsc4c3-c3c(F)cc(F)cc3OC)nn2C[C@H]1C [Compound 821]	–	–	A (percent of modification of PIK3CA protein ≥75%)	> 7.00
C=CC(=O)N1CCc2nc(-c3nc(-c4ccc5nn(C)cc5c4)c4ccsc4c3-c3c(F)cc(F)cc3OCCOC)sc2C1 [Compound 427]	–	–	A (percent of modification of PIK3CA protein ≥75%)	> 7.00
C=CC(=O)N1CC(n2cc(-c3nc(-c4ccc5c(c4)CCN(C)C5)c4ccsc4c3-c3ccc(F)cc3OCCOC)cn2)C1 [Compound 78]	–	–	A (percent of modification of PIK3CA protein ≥75%)	> 7.00
C=CC(=O)N1Cc2cc(-c3nc(-c4ccc5ncn(C)c5c4)c4ccsc4c3-c3c(F)cc(F)cc3OCC(C)O)nn2CC1C (stereo not shown) [Compound 765]	–	–	A (percent of modification of PIK3CA protein ≥75%)	> 7.00
C=CC(=O)N1CCc2nc(-c3nc(-c4ccc5c(c4)CCN(C)C5)c4ccsc4c3-c3c(F)cc(F)cc3OC(CF)CF)sc2C1 [Compound 522]	–	–	A (percent of modification of PIK3CA protein ≥75%)	6.00 to 7.00
C=CC(=O)N1CCn2nc(-c3nc(-c4ccc5cn(C)nc5c4)c4ccsc4c3-c3c(F)cc(F)cc3OCCOC)cc2[C@H]1C [Compound 747]	–	–	A (percent of modification of PIK3CA protein ≥75%)	> 7.00
C=CC(=O)N1CCn2nc(-c3nc(-c4ccc5cn(C)nc5c4)c4ccsc4c3-c3c(F)cc(F)cc3OC[C@@H](C)O)cc2[C@@H]1C [Compound 770, 1-((S)-2-((S)-7-(2,4-difluoro-6-((R)-2-hydroxypropoxy)phenyl)-4-(2-methyl-2H-indazol-6-yl)thieno[3,2-c]pyridin-6-yl)-4-methyl-6,7-dihydropyrazolo[1,5-a]pyrazin-5(4H)-yl)prop-2-en-1-one]	–	–	A (percent of modification of PIK3CA protein ≥75%)	> 7.00
C=CC(=O)N1CCn2nc(-c3nc(-c4ccc5c(cnn5C)c4)c4ccsc4c3-c3c(F)cc(F)cc3OCCO)cc2[C@@H]1C [Compound 1166]	D (percent of modification <25%)	6.00 to 7.00	–	–
C=CC(=O)N1CCc2ncc(-c3nc(-c4ccc5nn(C)cc5c4)c4ccsc4c3-c3c(F)cc(F)cc3OCCOC)cc2C1 [Compound 945]	A (percent of modification of PIK3CA protein ≥75%)	–	–	> 7.00
